Assay results published in patent US8389541B2, “Inhibitors of protein tyrosine kinase activity” (MethylGene Inc., priority 2007, dated 2013).

Experiments:
VEGF receptor KDR = target: T1, VEGF receptor KDR (Homo sapiens, UniProt P35968); experiment: In vitro receptor tyrosine kinase assay (DELFIA), VEGF receptor KDR; assay type: biochemical; conditions: GST-VEGFR2 806-1356, 0.6 uM ATP; read-out: VEGFR IC50
T1 construct: made in house; host or cells: Sf9 cells (Spodoptera frugiperda), baculovirus
Source text: In the case of VEGF receptor KDR a 1.6-kb cDNA corresponding to the catalytic domain of VEGFR2 or KDR (Genbank accession number AF035121 amino acid 806 to 1356) is cloned into the Pst I site of the pDEST20 Gateway vector (Invitrogen) for the production of a GST-tagged version of that enzyme.
The GST-VEGFR2806-1356 protein is expressed in Sf9 cells (Spodoptera frugiperda) upon infection with recombinant baculovirus construct.
The supernatant is loaded onto a GST-agarose column (Sigma) equilibrated with PBS pH 7.3. Following a four column volume (CV) wash with PBS pH 7.3+1% Triton X-100 and 4 CV wash with buffer B (50 mM Tris pH 8.0, 20% glycerol and 100 mM NaCl), bound proteins are step eluted with 5 CV of buffer B supplemented with 5 mM DTT and 15 mM glutathion. […] Final GST-VEGFR2806-1356 protein preparations concentrations are about 0.7 mg/ml with purity approximating 70%.

A549 cells = experiment: Wound healing assay in A549 cells (HGF-stimulated); assay type: cell-based; conditions: Homo sapiens, last dose that inhibited gap closing by more than 25%, 24 h, read-out: A549 WOUND_HEALING IC50
Description: Wound healing assay in A549 cells. A549 cells (ATCC) are seeded in DMEM low glucose medium complemented with 10% FBS into 24-well plates at a density of 7.5×10^4 cells/well and grown to confluence (48 h). Inhibitors were added to the medium at a range of doses (0.00032-10 uM) for 3 h at which point a gap is introduced by scraping cells with a P1000 pipette tip. Cells are then stimulated to migrate by the addition of HGF (in the form of conditioned medium from 293T cells over-expressing the human HGF gene) and the culture is continued for 24 h. […] For the purpose of standardization, a control is carried on every assay plates.

DU145 cells = experiment: Scatter assay in DU145 cells (HGF-stimulated); assay type: cell-based; conditions: Homo sapiens, DU-145, last dose that created an inhibitory effect on scattering, 24 h, read-out: DU145 SCATT. INHIB IC50
Description: Scatter assays in DU145. The scatter assay is performed as described previously (Miura H, Nishimura K, Tsujimura A, Matsumiya K, Matsumoto K, Nakamura T, et al. Effects of hepatocyte growth factor on E-cadherin-mediated cell-cell adhesion in DU145 prostate cancer cells. Urology 2001; 58(6):1064-9) for DU145 prostate carcinoma cells with the indicated modifications. In brief, DU145 cells (ATCC) are seeded in 24-well plates at a density of 7×10^3 cells/well in MEM medium complemented with 10% FBS and cultured for 48 h, to allow the formation of small compact colonies of cells. Inhibitors are subsequently added at a range of doses (0.00032-10 uM) for 3 h. Cells are then stimulated to migrate by the addition of HGF (in the form of conditioned medium from 293T cells over-expressing the human HGF gene) and the culture is continued for another 24 h. The IC50 values is defined as the last dose that created an inhibitory effect on scattering. For the purpose of standardization a control is carried on every test plates for the DU145 scattering assays.

c-Met = target: T2, c-Met (Homo sapiens, UniProt P08581); experiment: Inhibition of c-Met phosphorylation in MKN45 cells (direct ELISA); assay type: cell-based; conditions: 3 h treatment, read-out: CMET ELISA IN MKN45 IC50
T2 construct: endogenous in cells; host or cells: MKN45 gastric carcinoma cells
Source text: The following assay is used to determine inhibition of c-Met phosphorylation.
The c-Met receptor is expressed in numerous cancer cell lines derived from tumors of epithelial origin. In MKN45 gastric carcinoma cells the c-Met gene is amplified, resulting in several-fold overexpression of the receptor and its constitutive activation. For this reason constitutively high levels of ERK1/2 are also detected in these cells, independently of HGF-added stimulation (Smolen G A, Sordella R, Muir B, Mohapatra G, Barmettler A, Archibald H, et al. Amplification of MET may identify a subset of cancers with extreme sensitivity to the selective tyrosine kinase inhibitor PHA-665752. Proc Natl Acad Sci USA 2006). We have developed a sensitive method to follow c-Met phosphorylation in these cells. In previous studies with earlier generation c-Met inhibitors, we established that the IC50s for the inhibition of c-Met phosphorylation were identical using this novel ELISA approach and standard western blot procedure, with antibodies directed against the activating autocatalysis tyrosine residues of c-MET (Tyr Y1230-34-35).
Cell treatments: MKN45 cells are seeded into wells of 96-well plates at a density of 3×10^4 cells/well in RPMI medium supplemented with 10% FBS. HA-TPR-RON expressing 293T (clone 18) cells are seeded into wells of 96-well plates at a density of 3×10^4 cells/well in DMEM medium supplemented with 10% FBS. Cells are grown for 48 h prior to treatments with compounds of interest. Inhibitors are added to the medium in triplicate wells at the indicated doses. After 3 h of treatment, media is aspirated and cells are lysed by one freeze-thaw cycle in 50 μL/well hypotonic lysis buffer (25 mM HEPES pH 7.5, 10 mM NaCl with 1 mM 4-(2-aminoethyl)benzenesulfonyl fluoride hydrochloride, 200 μM sodium orthovanadate, 1 mM sodium fluoride, 10 μg/mL of leupeptin, 10 μg/mL of aprotinin/mL, 1 μg/mL of pepstatin and 50 μg/mL Na-p-tosyl-L-lysine chloromethyl ketone hydrochloride.
Detection of phosphorylated c-Met by direct ELISA: Lysate samples (5 μL) from wells of treatment plates are transferred to 80 μL of binding buffer (25 mM HEPES pH 7.5, 200 mM NaCl) in wells of high binding white polysterene 96-well plates (Corning). After an overnight protein binding incubation at 4° C., lysates are aspirated and wells are blocked for 1 h at 37° C. in TBST supplemented with 5% BSA. Plates are incubated with the primary antibodies anti-phospho-Tyrosine (Millipore, 4G10) diluted 1/15000 in TBST supplemented with 5% BSA for 1 h at room temperature. Plates are washed 3 times on a plate washer (SkanWasher, Molecular Devises), and incubated with the reporter antibody […] (Sigma) diluted 1/15000 in TBST supplemented with 5% BSA, for 1 h at room temperature. Plates are washed 3 times with TBST using on a plate washer and subsequently incubated with chemiluminescent substrate solution (ECL, Roche). Luminescence signal is captured on a Polar Star Optima apparatus (BMG LabTech).
Average values of the triplicate samples are used to prepare IC50 curves using a 4-parameter fit model. These curves are calculated using, for example, GraFit 5.0 software. For assay standardization purpose, an internal control is included on each experimental test plate.

[1] = target: recombinant human c-Met/HGF receptor (Homo sapiens, UniProt P08581); experiment: In vitro receptor tyrosine kinase assay (DELFIA), c-Met/HGF receptor
recombinant human c-Met/HGF receptor, sequence (P08581 1078-1337): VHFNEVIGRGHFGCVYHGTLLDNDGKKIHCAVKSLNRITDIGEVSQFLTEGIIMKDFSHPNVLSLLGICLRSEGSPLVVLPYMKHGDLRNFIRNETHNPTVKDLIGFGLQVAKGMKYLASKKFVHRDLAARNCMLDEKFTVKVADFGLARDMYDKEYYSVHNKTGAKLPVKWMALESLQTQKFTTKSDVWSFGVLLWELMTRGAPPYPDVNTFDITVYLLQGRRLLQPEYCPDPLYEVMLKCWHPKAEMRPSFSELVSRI

T2 sequence (P08581 25-1390): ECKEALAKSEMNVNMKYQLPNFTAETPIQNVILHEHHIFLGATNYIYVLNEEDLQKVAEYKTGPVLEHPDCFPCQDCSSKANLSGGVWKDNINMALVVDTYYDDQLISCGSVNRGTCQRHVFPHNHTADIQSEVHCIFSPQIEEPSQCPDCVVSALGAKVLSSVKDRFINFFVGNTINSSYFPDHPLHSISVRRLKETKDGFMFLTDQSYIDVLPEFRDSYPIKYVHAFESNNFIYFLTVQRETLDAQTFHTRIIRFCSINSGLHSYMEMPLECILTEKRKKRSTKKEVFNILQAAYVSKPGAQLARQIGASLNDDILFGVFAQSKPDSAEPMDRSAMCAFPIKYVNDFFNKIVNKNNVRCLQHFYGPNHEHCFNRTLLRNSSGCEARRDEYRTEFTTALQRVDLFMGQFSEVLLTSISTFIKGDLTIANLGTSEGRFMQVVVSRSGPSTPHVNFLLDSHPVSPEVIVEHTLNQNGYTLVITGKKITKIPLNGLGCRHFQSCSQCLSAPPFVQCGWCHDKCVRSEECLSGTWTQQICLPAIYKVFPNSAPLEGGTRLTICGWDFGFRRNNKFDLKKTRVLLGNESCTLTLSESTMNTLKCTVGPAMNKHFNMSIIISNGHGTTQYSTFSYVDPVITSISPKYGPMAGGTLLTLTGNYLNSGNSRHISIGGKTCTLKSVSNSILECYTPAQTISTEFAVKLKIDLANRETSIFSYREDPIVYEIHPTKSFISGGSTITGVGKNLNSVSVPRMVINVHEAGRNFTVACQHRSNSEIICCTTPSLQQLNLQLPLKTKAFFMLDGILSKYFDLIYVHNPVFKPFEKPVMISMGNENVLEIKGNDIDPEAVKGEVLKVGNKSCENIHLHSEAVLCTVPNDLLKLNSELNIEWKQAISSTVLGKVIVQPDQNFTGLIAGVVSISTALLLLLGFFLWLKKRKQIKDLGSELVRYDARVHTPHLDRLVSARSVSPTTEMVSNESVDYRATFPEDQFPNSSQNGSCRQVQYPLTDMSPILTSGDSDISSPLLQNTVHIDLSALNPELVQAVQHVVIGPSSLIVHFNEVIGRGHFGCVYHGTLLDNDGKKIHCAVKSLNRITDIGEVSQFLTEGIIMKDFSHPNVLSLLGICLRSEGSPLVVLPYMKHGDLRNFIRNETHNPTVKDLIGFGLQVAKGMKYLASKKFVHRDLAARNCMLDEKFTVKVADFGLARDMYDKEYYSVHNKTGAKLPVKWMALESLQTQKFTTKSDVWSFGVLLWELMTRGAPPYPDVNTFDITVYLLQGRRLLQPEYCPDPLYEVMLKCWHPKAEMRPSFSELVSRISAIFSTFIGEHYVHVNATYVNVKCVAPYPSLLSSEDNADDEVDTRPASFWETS
T1 sequence (P35968 806-1356): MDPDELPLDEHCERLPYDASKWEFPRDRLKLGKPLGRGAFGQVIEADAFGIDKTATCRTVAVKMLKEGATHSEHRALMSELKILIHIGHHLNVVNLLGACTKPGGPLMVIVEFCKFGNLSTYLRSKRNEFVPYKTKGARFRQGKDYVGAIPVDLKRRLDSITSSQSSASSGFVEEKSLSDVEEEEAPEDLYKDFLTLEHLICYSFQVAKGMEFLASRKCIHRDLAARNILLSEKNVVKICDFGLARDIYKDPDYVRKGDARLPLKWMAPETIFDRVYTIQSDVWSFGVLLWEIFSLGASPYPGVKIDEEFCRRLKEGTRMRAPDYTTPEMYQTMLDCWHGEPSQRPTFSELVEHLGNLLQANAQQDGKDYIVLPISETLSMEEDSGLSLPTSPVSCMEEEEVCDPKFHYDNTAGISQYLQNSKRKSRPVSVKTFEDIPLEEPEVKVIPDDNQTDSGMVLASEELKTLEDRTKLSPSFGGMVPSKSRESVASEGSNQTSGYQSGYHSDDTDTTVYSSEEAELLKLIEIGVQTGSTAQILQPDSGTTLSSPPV

IC50 (VEGF receptor KDR) [nM] | IC50 (A549 cells) [nM] | IC50 (DU145 cells) [nM] | IC50 (c-Met) [nM] | IC50 [1] [nM] | Structure (SMILES)
< 250 | 250 to 500 | < 250 | < 250 | < 250 | O=C(Nc1ccccc1)C1(C(=O)Nc2ccc(Oc3ccnc4cc(-c5ccc(CNC6CC6)cc5)sc34)c(F)c2)CC1
< 250 | < 250 | < 250 | < 250 | < 250 | COCCNCCn1cnc(-c2cc3nccc(Oc4ccc(NC(=S)NC(=O)Cc5ccccc5)cc4F)c3s2)c1
< 250 | > 1000 | 250 to 500 | < 250 | < 250 | COCCNCc1ccc(-c2cc3nccc(Oc4ccc(NC(=S)NC(=O)Cc5ccccc5)cc4F)c3s2)s1
< 250 | 250 to 500 | 250 to 500 | < 250 | < 250 | COCCNCc1ccc(-c2cc3nccc(Oc4ccc(NC(=O)CC(=O)N(C)c5ccccc5)cc4F)c3s2)nc1 [drawing 346]
< 250 | > 1000 | 250 to 500 | < 250 | < 250 | COCCNCc1ccc(-c2cc3nccc(Oc4ccc(NC(=S)NC(=O)Cc5ccccc5OC)cc4F)c3s2)cc1
< 250 | > 1000 | 250 to 500 | < 250 | < 250 | CN(C)CCOC(=O)N1CC=C(c2cc3nccc(Oc4ccc(NC(=O)CC(=O)N(C)c5ccccc5)cc4F)c3s2)CC1
< 250 | 250 to 500 | 250 to 500 | < 250 | < 250 | COCCNCCn1cnc(-c2cc3nccc(Oc4ccc(NC(=S)NC(=O)Cc5ccc(F)cc5)cc4F)c3s2)c1 [drawing 318]
< 250 | 500 to 1000 | > 1000 | 500 to 1000 | < 250 | COCCNCc1ccc(-c2cc3nccc(Oc4ccc(NC(=O)NC(=O)Cc5ccccc5OC)cc4F)c3s2)cc1
< 250 | 250 to 500 | 250 to 500 | < 250 | < 250 | COCCNCCn1cc(-c2cc3nccc(Oc4ccc(NC(=S)NC(=O)Cc5ccccc5)cc4F)c3s2)cn1 [drawing 321]
< 250 | 250 to 500 | 250 to 500 | < 250 | < 250 | CSCCNCc1ccc(-c2cc3nccc(Oc4ccc(NC(=S)NC(=O)Cc5ccccc5)cc4F)c3s2)cc1
< 250 | < 250 | < 250 | < 250 | < 250 | COCCNCc1ccc(-c2cc3nccc(Oc4ccc(NC(=O)CC(=O)Nc5ccccc5)cc4F)c3s2)nc1
< 250 | < 250 | < 250 | < 250 | < 250 | COCCNCc1cnc(-c2cc3nccc(Oc4ccc(NC(=S)NC(=O)Cc5ccccc5)cc4F)c3s2)n1C [drawing 342]
< 250 | < 250 | 250 to 500 | < 250 | < 250 | COCCNCCn1cc(-c2cc3nccc(Oc4ccc(NC(=O)CC(=O)N(C)c5ccccc5)cc4F)c3s2)cn1 [drawing 334]
< 250 | 250 to 500 | 250 to 500 | < 250 | < 250 | COCCNCc1ccc(-c2cc3nccc(Oc4ccc(NC(=S)NC(=O)Cc5ccccc5OC)cc4F)c3s2)nc1 [drawing 311]
< 250 | < 250 | < 250 | < 250 | < 250 | COCCNCCc1cccc(-c2cc3nccc(Oc4ccc(NC(=O)C5(C(=O)Nc6ccccc6)CC5)cc4F)c3s2)c1
< 250 | < 250 | < 250 | < 250 | < 250 | COCCNCc1ccc(-c2cc3nccc(Oc4ccc(NC(=S)NC(=O)Cc5ccccc5)cc4F)c3s2)nc1
< 250 | < 250 | < 250 | < 250 | < 250 | O=C(Nc1ccccc1)C1(C(=O)Nc2ccc(Oc3ccnc4cc(-c5ccc(CNCC(F)(F)F)cc5)sc34)c(F)c2)CC1
< 250 | 250 to 500 | 250 to 500 | < 250 | < 250 | COCCNCc1cccc(-c2cc3nccc(Oc4ccc(NC(=S)NC(=O)Cc5ccccc5OC)cc4F)c3s2)c1
< 250 | < 250 | < 250 | < 250 | < 250 | COCCNCc1ccc(-c2cc3nccc(Oc4ccc(NC(=O)C5(C(=O)Nc6ccccc6)CC5)cc4F)c3s2)cc1 [drawing 310]
250 to 500 | > 1000 | 250 to 500 | 250 to 500 | < 250 | COCCNCc1cccc(-c2cc3nccc(Oc4ccc(NC(=O)NC(=O)Cc5ccc(F)cc5)cc4F)c3s2)c1
< 250 | 250 to 500 | 250 to 500 | < 250 | < 250 | CS(=O)(=O)CCNCc1ccc(-c2cc3nccc(Oc4ccc(NC(=S)NC(=O)Cc5ccccc5)cc4F)c3s2)cc1
< 250 | < 250 | < 250 | < 250 | < 250 | COCCNCc1cccc(-c2cc3nccc(Oc4ccc(NC(=S)NC(=O)Cc5ccccc5)cc4F)c3s2)n1
< 250 | < 250 | < 250 | < 250 | < 250 | CS(=O)(=O)CCNCc1ccc(-c2cc3nccc(Oc4ccc(NC(=O)C5(C(=O)Nc6ccccc6)CC5)cc4F)c3s2)cc1 [drawing 340]
